According to patent publication US11214586B2, “Rhodamine triplet state complex and preparation and photodynamic therapy (PDT) study thereof” (SOUTHERN UNIVERSITY OF SCIENCE AND TECHNOLOGY, priority 2018, dated 2022):
Like-named read-outs stand apart in the source and are kept apart here.

Columns and labels:
[1] = UV/Vis absorption spectra; type: physicochemical; conditions: for λabs: absorption maximum, in CH3CN; for ε × 10^4: molar extinction coefficient at the absorption maxima, values × 10^4
Procedure: (§1) The UV-vis absorption spectra were taken on Cary 60 UV-vis spectrophotometer. Steady-state emission spectra at room temperature were recorded on an Edinburgh Instruments FLS980 fluorescence spectrometer. Quartz cuvettes (path length=1 cm) were used in all spectrophotometric and fluorometric measurements. NMR spectra were recorded on a Bruker AVANCE 400 (^1H NMR for 400 MHz and ^13C NMR for 100 MHz) Fourier transform NMR spectrometer with chemical shifts reported relative to tetramethylsilane, (CH3)4Si. High-resolution MS spectra were performed on an Orbitrap Fusion Tribrid mass spectrometer. Elemental analyses of the newly synthesized complexes were preformed on a Elementar Vario EL Cube elemental analyzer at Sun Yat-sen University. The nanosecond time-resolved transient-difference absorption spectra were detected by using Edinburgh LP920 instruments (Edinburgh Instruments, U.K.). All solutions for transient absorption studies were degassed on a high-vacuum line in a two-compartment cell consisting of a 10-ml Pyrex bulb and a 1-cm or 4-mm path length quartz cuvette and sealed from the atmosphere by a Bibby Rotaflo HP6 Teflon stopper. The solutions were rigorously degassed with at least four successive freeze-pump-thaw cycles. Emission lifetime measurements were performed using a conventional laser system. The excitation source used was a 355-nm output (third harmonic) of a Spectra-Physics Quanta-Ray Q-switched GCR-150-10 pulsed Nd-YAG laser. Luminescence decay signals were detected by a Hamamatsu R928 PMT and recorded on a Tektronix Model TDS-620A (500 MHz, 2 GS/s) digital oscilloscope and analyzed using a program for exponential fits. Absolute quantum yields were measured by HAMAMATSU-C11347.

[2] = Singlet oxygen emission at about 1270 nm; type: physicochemical; conditions: in CH3CN
Procedure: Singlet oxygen emission was detected by using FLS-980 spectrofluorometer. All of the compounds were dissolved in CH3CN. The absorbance at 532 nm was adjusted to be around 1.7 for all the compounds. Upon measurements, an 850 nm long-pass filter was inserted in between the sample and the detector to avoid many high-order diffraction from the visible emission.

[3] = DPBF 1O2 scavenger absorbance under 11-W lamp irradiation; type: physicochemical; conditions: irradiation with a 11-W lamp; 50 μM DPBF, 5 μM compound
Procedure: Rose Bengal was measured in MeOH.
(§2) The long-lived triplet excited state of rhodamine is anticipated to interact with molecular oxygen (^3O2) to form singlet oxygen (^1O2), which is useful for PDT applications. The ability of M-Rho to produce ^1O2 has been evaluated spectroscopically by the observation of ^1O2 emission at about 1270 nm (inset of FIG. 2b). Remarkable ^1O2 emission is observed in Ir-Rho, Re-Rho and Pt-Rho but not for Rh-Rho and bpy-Rho. By monitoring the diminution of the characteristic absorption of the ^1O2 scavenger 1,3-diphenylisobenzofuran (DPBF) at 410 nm, ^1O2 generation is also confirmed and the corresponding quantum yields (ϕΔ) for the complexes are determined (Table 1). […] The rate and quantum yield of ^1O2 generation are found to vary with different metal systems.

[4] = Singlet oxygen quantum yield; type: physicochemical; conditions: for ΦΔ (singlet oxygen quantum yield): relative to rose bengal (ΦΔ = 0.76)
Text: as §2
Singlet oxygen quantum yield was determined by comparing the ^1O2 emission intensity of Rose Bengal and M-Rho.

[5] = Nanosecond transient absorption difference spectroscopy; type: physicochemical; conditions: for TT (triplet-state lifetimes): measured by transient absorption in CH3CN
Text: Nanosecond transient absorption (TA) difference spectroscopy was employed to investigate the triplet excited states of M-Rho (FIG. 2c and FIGS. 16-19). Upon pulsed laser excitation at 355 nm, an intense bleaching signal at 575 nm with lifetime in microsecond range is observed, which is ascribed to the depletion of ground state rhodamine absorption. Such a long-lived excited state should be localized on the rhodamine unit, and is assigned as the ^3IL excited state of rhodamine in M-Rho. The absorption signal at 610-800 nm is due to the rhodamine ^3IL excited state absorption. In contrast, no signal from this triplet excited state is detected in bpy-Rho because of the lack of efficient ISC. On the other hand, only the transient absorption signals originating from the corresponding ^3MLCT excited states are observed in the rhodamine-free analogues (FIGS. 20-21).
as §1

MCF-7 cells [6] = assay: Subcellular localization with MitoTracker Green; type: cell-based, human; conditions: 5 μM, co-stained with MitoTracker Green
Procedure: MCF-7 cells (5000 cells) were cultured in eight-well chambered coverglasses (lab-Tek, Nunc, USA) for 24 h. Later, added to the cells to give final complexes concentrations (5 μM). After incubation for 30 min, The cells were treated with Mito-Tracker for 10 min to stain specifically the mitochondria (1:5000 dilution in PBS). After washing three times with PBS, followed by confocal microscopy imaging.

[7] = Steady-state emission spectra and absolute luminescence quantum yield; type: physicochemical; conditions: for λem: Conc. = 1.0 × 10^−6M in MeOH; for Φlum: absolute luminescence quantum yield measured by HAMAMATSU-C11347
Procedure: as §1

MCF-7 cells [8] = assay: Mitochondria-localized ROS, MitoSOX Red; type: cell-based, human; conditions: 10 μM, 11 W lamp irradiation for 10 min
Procedure: (a) Confocal fluorescence microscopic images of MCF-7 cells treated with MitoSOX (1.0 μM) according to the treatment variables, including with coincubation with bpy-Rho and M-Rho (10 μM), 11 W lamp irradiation for 10 min. (b) Flow cytometry analysis of MCF-7 cells (n=10000 cells) after treatment with MitoSox and different Rhodamine-metal Complexes mean fluorescence intensity per cell.
On the basis of the results of intracellular ROS production and colocalization study, it is reasonable to anticipate that the ROS is essentially generated within the mitochondria. MitoSOX Red reagent, a mitochondrial ROS indicator, is also used to probe specifically the generation of mitochondria-localized ROS. Intense red fluorescence from the oxidation of MitoSOX is observed in both confocal fluorescence microscopy images (FIG. 26a) and flow cytometry analysis (FIG. 26b) of MCG-7 cells incubated with MitoSOX and M-Rho.

MCF-7 cells [9] = assay: Intracellular ROS, DCFH-DA assay; type: cell-based, human; conditions: 5 μM, 11-W lamp for 30 min
Procedure: The MCF-7 cells were seeded in eight-well chambered coverglasses (lab-Tek, Nunc, USA) and six-well plate, incubated for 24 h in 5% CO2 at 37° C. Next, added to compounds (bpy-Rho and M-Rho) in medium make the final concentrations of 5 μM compounds. After irradiation treatment (11 W lamp 30 min), cells were promptly washed with PBS and incubated with 4 μg/ml 2′7′-dichloro-fluoreseindiacetate (DCFH-DA) for 30 min, and intracellular ROS generation was evaluated by flow cytometry and confocal microscopy.

MCF-7 cells [10] = assay: Mitochondrial membrane potential, flow-cytometry-based JC-1 assay; type: cell-based, human; conditions: 5 uM, 11 W lamp 30 min
Procedure: Mitochondrial depolarization was assessed by flow cytometry after incubation with JC-1 Molecular Probes (Thermo Fisher Scientific, USA). Briefly, The MCF-7 cells were seeded in six-well plate, incubated for 24 h in 5% CO2 at 37° C. Next, added to compounds (bpy-Rho and M-Rho) in medium make the final concentrations of 5 uM compounds. After irradiation treatment (11 W lamp 30 min). The cells were resuspended in warm PBS, and incubated with JC-1 (4 μg/ml) for 30 min at 37° C. and 5% CO2. Thereafter the cells were centrifuged, resuspended in 600 μL of PBS, and analyzed immediately on a flow cytometer (Becton Dickinson, San Jose, Calif., USA). Untreated cells were used as negative controls.

[11] = Octanol-water partition coefficient
Text: (§3) Octanol-water partition coefficients (log Po/w)^[27] of bpy-Rho and M-Rho have been measured in order to study their lipophilic/hydrophilic characters. The higher is the log Po/w value associated with the dye, the higher is its lipophilic character.

[12] = octanol-water, literature value; cited from earlier work

Text for physchem: as §3

Row | SMILES | λabs [1] [nm] | ε × 10^4 [1] [M^−1 cm^−1] | 1O2 emission at about 1270 nm [2] | DPBF absorption at 410 nm [3] | ΦΔ (singlet oxygen quantum yield) [4] | signal from rhodamine triplet excited state ([5]; excitation at 355 nm) | mitochondrial localization (MCF-7 cells [6]) | λem [7] [nm] | Φlum [7] | emission ([7]; in MeCN) [nm] | MitoSOX red fluorescence (mitochondria-localized ROS) (MCF-7 cells [8]) | logP (physchem) | intracellular ROS generation (MCF-7 cells [9]) | ratio of JC-1 aggregates/JC-1 monomers (MCF-7 cells [10]) | TT (triplet-state lifetimes) [5] [μs] | log Po/w [11] | log Po/w [12] | rate and quantum yield of 1O2 generation, ranking ([4]; among M-Rho)
1 | CCN(CC)c1ccc2c(-c3ccnc(-c4cc(C)ccn4)c3)c3ccc(=[N+](CC)CC)cc-3oc2c1 [bpy-Rho, N-(6-(diethylamino)-9-(4′-methyl-[2,2′-bipyridin]-4-yl)-3H-xanthen-3-ylidene)-N-ethylethanaminium] | 564 | 9.86 | not | negligible decrease | 0.08 | no signal | relatively less mitochondria-localized | 598 | 0.29 | 598 | very weak red fluorescence | 0.49 | negligible or a little amount of ROS | 14.23 | – | – | – | –
2 | CCN(CC)c1ccc2c(-c3ccnc(-c4cc(C)ccn4)c3)c3ccc(=[N+](CC)CC)cc-3oc2c1.F[P-](F)(F)(F)(F)F.[C](#Cc1ccccc1)[Pt][C]#Cc1ccccc1 [Pt-Rho] | 574 | 7.96 | Remarkable | – | 0.57 | – | – | 631 | 0.062 | – | – | – | – | 8.16 | 8.49 | 1.26 | – | –
3 | COC(=O)c1ccccc1-c1c2ccc(=N)cc-2oc2cc(N)ccc12.Cl [rhodamine 123] | – | – | – | – | – | – | – | – | – | – | – | – | – | – | – | – | −0.62 | –
4 | CCN(CC)c1ccc2c(-c3ccnc(-c4cc(C)ccn4)c3)c3ccc(=[N+](CC)CC)cc-3oc2c1.F[P-](F)(F)(F)(F)F.F[P-](F)(F)(F)(F)F.c1ccc(-c2cccc[c]2[Rh+][c]2ccccc2-c2ccccn2)nc1 [Rh-Rho] | 574 | 8.24 | not | – | 0.37 | – | – | 629 | 0.23 | – | – | – | – | 11.28 | 14.1 | −1.05 | – | worst photosensitizer
